Data as given in patent publication US6613322B2, “Method for treating a subject suffering from conditions associated with an extracellular zinc sphingomyelinase” (The Trustees of Columbia University in the City of New York, priority 1997, dated 2003).

Tests used:
S-SMase = molecular target: T1, S-SMase (Homo sapiens, UniProt P17405); experiment: SMase assay of endothelial cell (HUVEC) conditioned medium; assay type: biochemical; parameters: endogenous in cells; host or cells: primary HUVEC, 24-h serum-free conditioned medium
T1 sequence (P17405 47-631): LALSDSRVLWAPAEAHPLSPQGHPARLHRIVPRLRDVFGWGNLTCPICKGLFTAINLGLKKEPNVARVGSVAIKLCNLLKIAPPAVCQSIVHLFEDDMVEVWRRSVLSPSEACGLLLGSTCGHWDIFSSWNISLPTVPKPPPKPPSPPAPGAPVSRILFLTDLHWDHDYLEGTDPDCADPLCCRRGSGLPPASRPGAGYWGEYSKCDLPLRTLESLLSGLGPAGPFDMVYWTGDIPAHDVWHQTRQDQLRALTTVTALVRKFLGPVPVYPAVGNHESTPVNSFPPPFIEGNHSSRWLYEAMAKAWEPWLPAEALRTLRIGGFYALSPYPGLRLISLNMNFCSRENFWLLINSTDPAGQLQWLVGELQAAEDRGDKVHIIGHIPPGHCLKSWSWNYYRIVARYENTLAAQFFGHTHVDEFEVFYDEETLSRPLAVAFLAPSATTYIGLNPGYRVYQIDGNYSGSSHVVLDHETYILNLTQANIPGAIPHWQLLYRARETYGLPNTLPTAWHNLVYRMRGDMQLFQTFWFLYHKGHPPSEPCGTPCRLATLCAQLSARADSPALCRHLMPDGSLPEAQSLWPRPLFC
Description: FIGS. 20A-B. Cultured human endothelial cells secrete abundant amounts of S-SMase.
(§1) Smase Assay—As previously described (15), the standard 200-μl assay mixture consisted of up to 40 μl of sample (conditioned media or homogenized cells; see above, and a volume of assay buffer (0.1 M sodium acetate, pH 5.0) to bring the volume to 160 μl. The reaction was initiated by the addition of 40 μl substrate (50 pmol [^3H]sphingomyelin) in 0.25 M sucrose containing 3% Triton X-100 (final concentration of Triton X-100 in the 200-μl assay mix=0.6%). When added, the final concentrations of EDTA and Zn^2+ were 5 mM and 0.1 mM, respectively, unless indicated otherwise. The assay mixtures were incubated at 37° C. for no longer than 3 h and then extracted by the method of Bligh and Dyer (37); the lower, organic phase was harvested, evaporated under N2, and fractionated by TLC using chloroform:methanol (95:5). The ceramide spots were scraped and directly counted to quantify [^3H]ceramide. Typically, our assay reactions contained approximately 20 μg of cellular homogenate protein and a volume of conditioned media derived from a quantity of cells equivalent to approximately 50 μg of cellular protein.

internalized S-SMase = molecular target: T2, internalized S-SMase (Homo sapiens, UniProt P17405); experiment: SMase activity in homogenates of type A Niemann-Pick fibroblasts after internalization of FLAG-tagged S-SMase; assay type: biochemical; details: 0.1 mM ZnCl2, sonicated cell homogenates
T2 construct: FLAG; purchased AMGEN, Boulder, Colo
T2 sequence (P17405 47-631): T1 sequence (P17405 47-631)
Description: FIG. 17. Zn^2+-dependency of S-SMase after internalization by type A Niemann-Pick cells. Skin fibroblasts from a patient with type A Niemann-Pick disease (NP-A Cells) were grown to 90% confluency in medium supplemented with 10% HI-FBS. The cells were then washed three times with PBS and incubated in serum-free media containing 0.2% BSA and 850 ng immunoaffinity-isolated FLAG-tagged S-SMase (Purified S-SMase)/ml at 37° C. for 16 h. The cell homogenate and incubation medium were then prepared as described in “Experimental Procedures”, and aliquots were assayed for SMase activity in the presence of either 5 mM EDTA (hatched bars) or 0.1 mM ZnCl2 (solid bars) for 2 h at 37° C. at pH 5.0. […]
SMase Assay—As previously described (Schissel et al., 1996), the standard 200-μl assay mixture consisted of up to 40 μl of sample (conditioned media or homogenized cells; see above) and a volume of assay buffer (0.1 M sodium acetate, pH 5.0) to bring the volume to 160 μl. […] The ceramide spots were scraped and directly counted to quantify [^3H]ceramide. Typically, the assay reactions contained approximately 20 μg of cellular homogenate protein and a volume of conditioned media derived from a quantity of cells equivalent to approximately 50 μg of cellular protein. […]

L-SMase = molecular target: T3, L-SMase (Homo sapiens, UniProt P17405); experiment: SMase assay of HUVEC cell homogenate, zinc-dependency; assay type: biochemical
T3 construct: endogenous in cells; host or cells: HUVEC, sonicated cell homogenate
T3 sequence (P17405 47-631): T1 sequence (P17405 47-631)
Description: as §1

[1] = system: S-SMase secretion by HUVECs; experiment: Cytokine regulation of S-SMase secretion by HUVECs (SMase activity in conditioned media); assay type: cell-based, human; details: 18 h, IL-1β 5 ng/ml, interferon-γ 1000 units/ml
Description: Conditioned media (FIG. 23A) and cell homogenates (FIG. 23B) from these cells were then assayed for SMase activity in the presence or absence of 0.1 mM ZnCl2, respectively.
The cells were then washed 3 times with PBS and incubated for 24 h in 1 ml fresh serum-free media containing 0.2%6 BSA. This 24-h conditioned medium was collected for SMase assays.
Harvesting of Cells and Conditioned Media—Following the incubations described above and in the figure legends, cells were placed on ice and the serum-free conditioned media was removed. The cells were washed two times with ice-cold 0.25 M sucrose and scraped into 0.3 ml and 3.0 ml of this sucrose solution per 35-mm and 100-mm dishes, respectively. Unless indicated otherwise, the scraped cells were disrupted by sonication on ice using three 5-second bursts (Branson 450 Sonifier), and the cellular homogenates were assayed for total protein by the method of Lowry et al. (22) and for SMase activity as described below. The conditioned media were spun at 800×g for 5 min to pellet any contaminating cells and concentrated six-fold using a Centriprep 30 (Amicon; Beverly, Mass.) concentrator (molecular weight cut off=30,000).

Molecule | stimulation of SMase secreted by endothelial cells by exogenous Zn2+ (S-SMase) | increase of enzymatic activity of S-SMase by Zn2+ (S-SMase; S-SMase from IL-1β-treated HUVECs) | increase of enzymatic activity of S-SMase by Zn2+ (S-SMase; S-SMase from untreated HUVECs) | effect of added Zn2+ on cellular enzymatic activity (internalized S-SMase) | increase of enzymatic activity of L-SMase by Zn2+ (L-SMase; L-SMase from IL-1β-treated HUVECs) | increase of enzymatic activity of L-SMase by Zn2+ (L-SMase; L-SMase from untreated HUVECs) | increase of S-SMase activity / secretion (conditioned media) [1]
[Cl-].[Cl-].[Zn+2] [Zn^2+, ZnCl2] | two-fold | 1.77±0.03 fold | 1.78±0.17 fold | failed to increase | 1.13±0.08 fold | 1.09±0.04 fold | –
IL-1β: human recombinant interleukin-1β | – | – | – | – | – | – | ~3 fold
